According to paper PMC9950205, “Efficacy, safety, and pharmacokinetics of teduglutide in adult Japanese patients with short bowel syndrome and intestinal failure: two phase III studies with an extension” (Surgery Today, 2022):

Test system: adult Japanese patients with SBS-IF
Assay: Safety: treatment-emergent adverse events (TEAEs, TESAEs)
Type: in vivo
Description: Safety analyses included the monitoring of adverse events (AEs), body weight, BMI, vital signs, 12-lead electrocardiogram (ECG), serum biochemistry, hematology, and presence of antibodies to teduglutide. AEs were coded using the Medical Dictionary for Regulatory Activities versions 17.1 (TED-C14-004) and 21.0 (SHP633-306 and SHP633-307). Specifically, AEs were treatment-emergent AEs (TEAEs), defined as any unfavorable and unintended sign (including any abnormal laboratory finding), symptom, or disease that occurred during treatment with teduglutide, whether or not the event was considered to be related to the study drug by the clinical study investigator. AEs were also categorized as mild, moderate, or severe. […] AEs were considered related to treatment with teduglutide, or its administration, based on the investigator's medical judgment.

[1] = ≤ 24 weeks (SHP633-306 and TED-C14-004), 0.05 mg/kg/day

## CC[C@H](C)[C@H](NC(=O)[C@H](Cc1ccccc1)NC(=O)[C@H](CC(=O)O)NC(=O)[C@H](CCCNC(=N)N)NC(=O)[C@H](C)NC(=O)[C@H](C)NC(=O)[C@H](CC(C)C)NC(=O)[C@H](CC(N)=O)NC(=O)[C@H](CC(=O)O)NC(=O)[C@H](CC(C)C)NC(=O)[C@@H](NC(=O)[C@@H](NC(=O)[C@H](CC(N)=O)NC(=O)[C@H](CCSC)NC(=O)[C@H](CCC(=O)O)NC(=O)[C@H](CC(=O)O)NC(=O)[C@H](CO)NC(=O)[C@H](Cc1ccccc1)NC(=O)[C@H](CO)NC(=O)CNC(=O)[C@H](CC(=O)O)NC(=O)CNC(=O)[C@@H](N)Cc1c[nH]cn1)[C@@H](C)O)[C@@H](C)CC)C(=O)N[C@@H](CC(N)=O)C(=O)N[C@@H](Cc1c[nH]c2ccccc12)C(=O)N[C@@H](CC(C)C)C(=O)N[C@H](C(=O)N[C@@H](CCC(N)=O)C(=O)N[C@H](C(=O)N[C@@H](CCCCN)C(=O)N[C@H](C(=O)N[C@H](C(=O)N[C@@H](CC(=O)O)C(=O)O)[C@@H](C)O)[C@@H](C)CC)[C@@H](C)O)[C@@H](C)CC [teduglutide]
Total, 0.05 mg/kg/day
  Immune system disorders: Events: 2 n
  Immune system disorders: Patients: 2 (11.1) n (%)
  Infections and infestations: Events: 81 n
  Infections and infestations: Patients: 12 (66.7) n (%)
  Influenza: Events: 21 n
  Injection site reaction: Events: 4 n
  Injection site reaction: Patients: 4 (22.2) n (%)
  Injury, poisoning, and procedural complications: Events: 6 n
  Injury, poisoning, and procedural complications: Patients: 5 (27.8) n (%)
  Insomnia: Events: 2 n
  Insomnia: Patients: 2 (11.1) n (%)
  Investigations: Events: 14 n
  Investigations: Patients: 7 (38.9) n (%)
  Metabolism and nutrition disorders: Events: 13 n
  Metabolism and nutrition disorders: Patients: 7 (38.9) n (%)
  Musculoskeletal and connective tissue disorders: Events: 12 n
  Musculoskeletal and connective tissue disorders: Patients: 8 (44.4) n (%)
  Nasopharyngitis: Events: 21 n
  Nasopharyngitis: Patients: 7 (38.9) n (%)
  Nausea: Events: 8 n
  Nausea: Patients: 4 (22.2) n (%)
  Nervous system disorders: Events: 26 n
  Nervous system disorders: Patients: 8 (44.4) n (%)
  Oral herpes: Events: 2 n
  Oral herpes: Patients: 2 (11.1) n (%)
  Oropharyngeal pain: Events: 4 n
  Oropharyngeal pain: Patients: 4 (22.2) n (%)
  Pruritus: Events: 2 n
  Pruritus: Patients: 2 (11.1) n (%)
  Psychiatric disorders: Events: 4 n
  Psychiatric disorders: Patients: 3 (16.7) n (%)
  Pyrexia: Events: 11 n
  Pyrexia: Patients: 8 (44.4) n (%)
  Renal and urinary disorders: Events: 6 n
  Renal and urinary disorders: Patients: 5 (27.8) n (%)
  Respiratory, thoracic, and mediastinal disorders: Events: 13 n
  Respiratory, thoracic, and mediastinal disorders: Patients: 7 (38.9) n (%)
  Skin and subcutaneous tissue disorders: Events: 18 n
  Skin and subcutaneous tissue disorders: Patients: 9 (50.0) n (%)
  Somnolence: Events: 3 n
  Somnolence: Patients: 3 (16.7) n (%)
  Stomatitis: Events: 4 n
  Stomatitis: Patients: 4 (22.2) n (%)
  Upper respiratory tract inflammation: Events: 3 n
  Upper respiratory tract inflammation: Patients: 2 (11.1) n (%)
  Vascular disorders: Events: 6 n
  Vascular disorders: Patients: 4 (22.2) n (%)
  Vascular pain: Events: 3 n
  Vascular pain: Patients: 2 (11.1) n (%)
  Vomiting: Events: 3 n
  Vomiting: Patients: 3 (16.7) n (%)
All studies
  Severity of the majority of all TEAEs: mild or moderate
During any of the studies
  Changes in clinical laboratory measures, vital signs, body weight, BMI, or ECG findings: no clinically meaningful changes
During the studies
  AEs related to growth of pre-existing polyps of the colon or gastrointestinal cancers: no AEs
[1]
  Abdominal distension: Events: 4 n
  Abdominal distension: Patients: 4 (22.2) n (%)
  Abdominal pain: Events: 5 n
  Abdominal pain: Patients: 5 (27.8) n (%)
  Anal abscess: Events: 0 n
  Anal abscess: Patients: 0 n (%)
  Anemia: Events: 2 n
  Anemia: Patients: 2 (11.1) n (%)
  Any TEAE: Events: 121 n
  Any TEAE: Patients: 17 (94.4) n (%)
  Arthralgia: Events: 0 n
  Arthralgia: Patients: 0 n (%)
  Back pain: Events: 1 n
  Back pain: Patients: 1 (5.6) n (%)
  Blood and lymphatic system disorders: Events: 4 n
  Blood and lymphatic system disorders: Patients: 3 (16.7) n (%)
  Catheter site infection: Events: 1 n
  Catheter site infection: Patients: 1 (5.6) n (%)
  Catheter site pain: Events: 1 n
  Catheter site pain: Patients: 1 (5.6) n (%)
  Dehydration: Events: 2 n
  Dehydration: Patients: 2 (11.1) n (%)
  Dermatitis contact: Events: 0 n
  Dermatitis contact: Patients: 0 n (%)
  Device occlusion (central venous catheter for PS): Events: 3 n
  Device occlusion (central venous catheter for PS): Patients: 2 (11.1) n (%)
  Device-related infection (central venous catheter for PS): Events: 9 n
  Device-related infection (central venous catheter for PS): Patients: 6 (33.3) n (%)
  Diarrhea: Events: 1 n
  Diarrhea: Patients: 1 (5.6) n (%)
  Dry skin: Events: 1 n
  Dry skin: Patients: 1 (5.6) n (%)
  Enteritis: Events: 1 n
  Enteritis: Patients: 1 (5.6) n (%)
  Enterocolitis: Events: 2 n
  Enterocolitis: Patients: 1 (5.6) n (%)
  Eye disorder: Events: 2 n
  Eye disorder: Patients: 2 (11.1) n (%)
  Gastrointestinal disorders: Events: 27 n
  Gastrointestinal disorders: Patients: 12 (66.7) n (%)
  General disorders and administration site conditions: Events: 21 n
  General disorders and administration site conditions: Patients: 9 (50.0) n (%)
  Headache: Events: 3 n
  Headache: Patients: 3 (16.7) n (%)
  Hematuria: Events: 1 n
  Hematuria: Patients: 1 (5.6) n (%)
  Hemorrhage subcutaneous: Events: 1 n
  Hemorrhage subcutaneous: Patients: 1 (5.6) n (%)
  Hepatobiliary disorders: Events: 3 n
  Hepatobiliary disorders: Patients: 2 (11.1) n (%)
  Hypersensitivity: Events: 0 n
  Hypersensitivity: Patients: 0 n (%)
  Hypozincemia: Events: 1 n
  Hypozincemia: Patients: 1 (5.6) n (%)
  Immune system disorders: Events: 0 n
  Immune system disorders: Patients: 0 n (%)
  Infections and infestations: Events: 19 n
  Infections and infestations: Patients: 8 (44.4) n (%)
  Influenza: Events: 0 n
  Influenza: Patients: 0 n (%)
  Injection site reaction: Events: 4 n
  Injection site reaction: Patients: 4 (22.2) n (%)
  Injury, poisoning, and procedural complications: Events: 5 n
  Injury, poisoning, and procedural complications: Patients: 4 (22.2) n (%)
  Insomnia: Events: 0 n
  Insomnia: Patients: 0 n (%)
  Investigations: Events: 9 n
  Investigations: Patients: 6 (33.3) n (%)
  Metabolism and nutrition disorders: Events: 6 n
  Metabolism and nutrition disorders: Patients: 4 (22.2) n (%)
  Musculoskeletal and connective tissue disorders: Events: 2 n
  Musculoskeletal and connective tissue disorders: Patients: 2 (11.1) n (%)
  Nasopharyngitis: Events: 3 n
  Nasopharyngitis: Patients: 3 (16.7) n (%)
  Nausea: Events: 1 n
  Nausea: Patients: 1 (5.6) n (%)
  Nervous system disorders: Events: 7 n
  Nervous system disorders: Patients: 4 (22.2) n (%)
  Oral herpes: Events: 1 n
  Oral herpes: Patients: 1 (5.6) n (%)
  Oropharyngeal pain: Events: 1 n
  Oropharyngeal pain: Patients: 1 (5.6) n (%)
  Pruritus: Events: 1 n
  Pruritus: Patients: 1 (5.6) n (%)
  Psychiatric disorders: Events: 0 n
  Psychiatric disorders: Patients: 0 n (%)
  Pyrexia: Events: 6 n
  Pyrexia: Patients: 6 (33.3) n (%)
  Renal and urinary disorders: Events: 2 n
  Renal and urinary disorders: Patients: 2 (11.1) n (%)
  Respiratory, thoracic, and mediastinal disorders: Events: 5 n
  Respiratory, thoracic, and mediastinal disorders: Patients: 5 (27.8) n (%)
  Skin and subcutaneous tissue disorders: Events: 5 n
  Skin and subcutaneous tissue disorders: Patients: 4 (22.2) n (%)
  Somnolence: Events: 0 n
  Somnolence: Patients: 0 n (%)
  Stomatitis: Events: 1 n
  Stomatitis: Patients: 1 (5.6) n (%)
  Upper respiratory tract inflammation: Events: 2 n
  Upper respiratory tract inflammation: Patients: 2 (11.1) n (%)
  Vascular disorders: Events: 2 n
  Vascular disorders: Patients: 2 (11.1) n (%)
  Vascular pain: Events: 0 n
  Vascular pain: Patients: 0 n (%)
  Vomiting: Events: 2 n
  Vomiting: Patients: 2 (11.1) n (%)
